Data reported in patent publication US8642837B2, “Method to increase pathogen resistance in plants” (Expressive Research B.V., priority 2004, dated 2014).

System: callose deposition
Assay: Callose deposition in plants tested with Peronospora parasitica
Type: in vivo, Arabidopsis
Conditions: treatment with BABA, positive control

CC(N)CC(=O)O (stereo not drawn) [BABA, β-aminobutyric acid]
callose deposition: increased
